Reference: the supplement of paper PMC10307832

Tests used:
Assay in all cases: relative viability (nuclei count vs DMSO), 5 days (fraction); higher = more cells survive
[1] = compound: CCN1CCC(CC1)N2C=C(N=N2)CNC3=CC4=C(C(=CN=C4C(=C3)Cl)C#N)NC5=CC(=C(C=C5)F)Cl [KIN001-266] + O=C(c1cc(Cc2n[nH]c(=O)c3ccccc23)ccc1F)N1CCN(C(=O)C2CC2)CC1 [Olaparib] (partner 8 µM)
Method in brief: (§1)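 Relative viability equals treated-well nuclei counts divided by vehicle-well nuclei counts. Counts came from 4× images of lung cancer cell lines grown in 1536-well plates for 5 days after pin-tool dosing on the day after seeding. Dosing used one drug alone or a fixed anchor-drug dose plus five library-drug doses (not always all listed) in √10 steps, and values are medians of duplicate plates.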

[2] = compound: CCN1CCC(CC1)N2C=C(N=N2)CNC3=CC4=C(C(=CN=C4C(=C3)Cl)C#N)NC5=CC(=C(C=C5)F)Cl [KIN001-266] + CC(=O)Nc1cccc(-n2c(=O)n(C3CC3)c(=O)c3c(Nc4ccc(I)cc4F)n(C)c(=O)c(C)c32)c1 [Trametinib] (partner 0.02 µM)
Method in brief: as §1

[3] = compound: CCN1CCC(CC1)N2C=C(N=N2)CNC3=CC4=C(C(=CN=C4C(=C3)Cl)C#N)NC5=CC(=C(C=C5)F)Cl [KIN001-266] + CS(=O)(=O)N1CCN(Cc2cc3nc(-c4cccc5[nH]ncc45)nc(N4CCOCC4)c3s2)CC1 [Pictilisib] (partner 1 µM)
Method in brief: as §1

[4] = compound: CCN1CCC(CC1)N2C=C(N=N2)CNC3=CC4=C(C(=CN=C4C(=C3)Cl)C#N)NC5=CC(=C(C=C5)F)Cl [KIN001-266] + CC(C)C[C@H](NC(=O)[C@H](Cc1ccccc1)NC(=O)c1cnccn1)B(O)O [Bortezomib] (partner 0.002 µM)
Method in brief: as §1

NCI-H2405
relative viability ([1]; first compound 0.08 µM): 0.889
relative viability ([1]; first compound 0.253 µM): 0.905
relative viability ([1]; first compound 0.8 µM): 0.906
relative viability ([1]; first compound 2.53 µM): 0.853
relative viability ([1]; first compound 8 µM): 0.642
relative viability ([2]; first compound 0.08 µM): 0.64
relative viability ([2]; first compound 0.253 µM): 0.658
relative viability ([2]; first compound 0.8 µM): 0.661
relative viability ([2]; first compound 2.53 µM): 0.615
relative viability ([2]; first compound 8 µM): 0.61
relative viability ([3]; first compound 0.08 µM): 0.384
relative viability ([3]; first compound 0.253 µM): 0.412
relative viability ([3]; first compound 0.8 µM): 0.449
relative viability ([3]; first compound 2.53 µM): 0.288
relative viability ([3]; first compound 8 µM): 0.347
relative viability ([4]; first compound 0.08 µM): 0.99
relative viability ([4]; first compound 0.253 µM): 1
relative viability ([4]; first compound 0.8 µM): 0.984
relative viability ([4]; first compound 2.53 µM): 0.925
relative viability ([4]; first compound 8 µM): 0.809

NCI-H3122
relative viability ([1]; first compound 0.08 µM): 0.588
relative viability ([1]; first compound 0.253 µM): 0.689
relative viability ([1]; first compound 0.8 µM): 0.636
relative viability ([1]; first compound 2.53 µM): 0.576
relative viability ([1]; first compound 8 µM): 0.524
relative viability ([2]; first compound 0.08 µM): 0.234
relative viability ([2]; first compound 0.253 µM): 0.218
relative viability ([2]; first compound 0.8 µM): 0.223
relative viability ([2]; first compound 2.53 µM): 0.232
relative viability ([2]; first compound 8 µM): 0.292
relative viability ([3]; first compound 0.08 µM): 0.573
relative viability ([3]; first compound 0.253 µM): 0.615
relative viability ([3]; first compound 0.8 µM): 0.494
relative viability ([3]; first compound 2.53 µM): 0.559
relative viability ([3]; first compound 8 µM): 0.544
relative viability ([4]; first compound 0.08 µM): 0.996
relative viability ([4]; first compound 0.253 µM): 1.03
relative viability ([4]; first compound 0.8 µM): 1.03
relative viability ([4]; first compound 2.53 µM): 0.969
relative viability ([4]; first compound 8 µM): 0.974

PC-3 [JPC-3]
relative viability ([1]; first compound 0.08 µM): 1.09
relative viability ([1]; first compound 0.253 µM): 1.21
relative viability ([1]; first compound 0.8 µM): 1.08
relative viability ([1]; first compound 2.53 µM): 1.14
relative viability ([1]; first compound 8 µM): 0.963
relative viability ([2]; first compound 0.08 µM): 0.785
relative viability ([2]; first compound 0.253 µM): 0.739
relative viability ([2]; first compound 0.8 µM): 0.554
relative viability ([2]; first compound 2.53 µM): 0.741
relative viability ([2]; first compound 8 µM): 0.607
relative viability ([3]; first compound 0.08 µM): 0.797
relative viability ([3]; first compound 0.253 µM): 0.8
relative viability ([3]; first compound 0.8 µM): 0.575
relative viability ([3]; first compound 2.53 µM): 0.693
relative viability ([3]; first compound 8 µM): 0.527
relative viability ([4]; first compound 0.08 µM): 0.786
relative viability ([4]; first compound 0.253 µM): 0.846
relative viability ([4]; first compound 0.8 µM): 0.813
relative viability ([4]; first compound 2.53 µM): 0.736
relative viability ([4]; first compound 8 µM): 0.764

PC-14
relative viability ([1]; first compound 0.08 µM): 0.24
relative viability ([1]; first compound 0.253 µM): 0.354
relative viability ([1]; first compound 0.8 µM): 0.251
relative viability ([1]; first compound 2.53 µM): 0.312
relative viability ([1]; first compound 8 µM): 0.141
relative viability ([2]; first compound 0.08 µM): 0.715
relative viability ([2]; first compound 0.253 µM): 0.729
relative viability ([2]; first compound 0.8 µM): 0.808
relative viability ([2]; first compound 2.53 µM): 0.518
relative viability ([2]; first compound 8 µM): 0.141
relative viability ([3]; first compound 0.08 µM): 0.702
relative viability ([3]; first compound 0.253 µM): 0.571
relative viability ([3]; first compound 0.8 µM): 0.772
relative viability ([3]; first compound 2.53 µM): 0.565
relative viability ([3]; first compound 8 µM): 0.0965
relative viability ([4]; first compound 0.08 µM): 0.881
relative viability ([4]; first compound 0.253 µM): 0.816
relative viability ([4]; first compound 0.8 µM): 0.892
relative viability ([4]; first compound 2.53 µM): 0.759
relative viability ([4]; first compound 8 µM): 0.297

RERF-LC-KJ
relative viability ([1]; first compound 0.08 µM): 0.974
relative viability ([1]; first compound 0.253 µM): 0.952
relative viability ([1]; first compound 0.8 µM): 0.858
relative viability ([1]; first compound 2.53 µM): 0.762
relative viability ([1]; first compound 8 µM): 0.649
relative viability ([2]; first compound 0.08 µM): 0.945
relative viability ([2]; first compound 0.253 µM): 0.849
relative viability ([2]; first compound 0.8 µM): 0.823
relative viability ([2]; first compound 2.53 µM): 0.778
relative viability ([2]; first compound 8 µM): 0.556
relative viability ([3]; first compound 0.08 µM): 0.537
relative viability ([3]; first compound 0.253 µM): 0.554
relative viability ([3]; first compound 0.8 µM): 0.516
relative viability ([3]; first compound 2.53 µM): 0.635
relative viability ([3]; first compound 8 µM): 0.315
relative viability ([4]; first compound 0.08 µM): 1.11
relative viability ([4]; first compound 0.253 µM): 1.23
relative viability ([4]; first compound 0.8 µM): 1.08
relative viability ([4]; first compound 2.53 µM): 1.01
relative viability ([4]; first compound 8 µM): 0.82

SK-LU-1
relative viability ([1]; first compound 0.08 µM): 0.557
relative viability ([1]; first compound 0.253 µM): 0.427
relative viability ([1]; first compound 0.8 µM): 0.489
relative viability ([1]; first compound 2.53 µM): 0.373
relative viability ([1]; first compound 8 µM): 0.416
relative viability ([2]; first compound 0.08 µM): 0.518
relative viability ([2]; first compound 0.253 µM): 0.451
relative viability ([2]; first compound 0.8 µM): 0.437
relative viability ([2]; first compound 2.53 µM): 0.369
relative viability ([2]; first compound 8 µM): 0.429
relative viability ([3]; first compound 0.08 µM): 0.562
relative viability ([3]; first compound 0.253 µM): 0.546
relative viability ([3]; first compound 0.8 µM): 0.637
relative viability ([3]; first compound 2.53 µM): 0.467
relative viability ([3]; first compound 8 µM): 0.434
relative viability ([4]; first compound 0.08 µM): 1.39
relative viability ([4]; first compound 0.253 µM): 1.14
relative viability ([4]; first compound 0.8 µM): 1.31
relative viability ([4]; first compound 2.53 µM): 1.12
relative viability ([4]; first compound 8 µM): 1.04

SW 1573
relative viability ([1]; first compound 0.08 µM): 0.459
relative viability ([1]; first compound 0.253 µM): 0.5
relative viability ([1]; first compound 0.8 µM): 0.542
relative viability ([1]; first compound 2.53 µM): 0.404
relative viability ([1]; first compound 8 µM): 0.313
relative viability ([2]; first compound 0.08 µM): 0.575
relative viability ([2]; first compound 0.253 µM): 0.493
relative viability ([2]; first compound 0.8 µM): 0.603
relative viability ([2]; first compound 2.53 µM): 0.557
relative viability ([2]; first compound 8 µM): 0.464
relative viability ([3]; first compound 0.08 µM): 0.523
relative viability ([3]; first compound 0.253 µM): 0.448
relative viability ([3]; first compound 0.8 µM): 0.502
relative viability ([3]; first compound 2.53 µM): 0.474
relative viability ([3]; first compound 8 µM): 0.39
relative viability ([4]; first compound 0.08 µM): 1.13
relative viability ([4]; first compound 0.253 µM): 0.914
relative viability ([4]; first compound 0.8 µM): 1.09
relative viability ([4]; first compound 2.53 µM): 0.92
relative viability ([4]; first compound 8 µM): 0.808

UMC-11
relative viability ([1]; first compound 0.08 µM): 0.351
relative viability ([1]; first compound 0.253 µM): 0.515
relative viability ([1]; first compound 0.8 µM): 0.398
relative viability ([1]; first compound 2.53 µM): 0.31
relative viability ([1]; first compound 8 µM): 0.319
relative viability ([2]; first compound 0.08 µM): 0.741
relative viability ([2]; first compound 0.253 µM): 0.711
relative viability ([2]; first compound 0.8 µM): 0.718
relative viability ([2]; first compound 2.53 µM): 0.506
relative viability ([2]; first compound 8 µM): 0.774
relative viability ([3]; first compound 0.08 µM): 0.808
relative viability ([3]; first compound 0.253 µM): 0.841
relative viability ([3]; first compound 0.8 µM): 0.827
relative viability ([3]; first compound 2.53 µM): 0.5
relative viability ([3]; first compound 8 µM): 0.677
relative viability ([4]; first compound 0.08 µM): 0.703
relative viability ([4]; first compound 0.253 µM): 0.543
relative viability ([4]; first compound 0.8 µM): 0.71
relative viability ([4]; first compound 2.53 µM): 0.638
relative viability ([4]; first compound 8 µM): 0.738
